The record followed here is ChEMBL document CHEMBL1201862, “PubChem BioAssay data set” (2004).

Test systems include SW-620; OVCAR-5; PC-3; CCRF-CEM; A549; CAKI-1; IGROV-1; ACHN; TK-10; NCI-H522; Malme-3M; SK-MEL-5; SNB-19; SNB-75; RPMI-8226; HCT-116; NCI-H460; Hs-578T; HOP-62; SK-OV-3.
Holding throughout (test): DTP human tumour cell line panel, 48 h

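Each compound was tested at five concentrations against cells in 96-well plates for 48 hours. The concentration for 50% growth inhibition is given as GI50.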 Active and inactive are the calls of the source. No stated cut-off is given here; in the data, active = GI50 up to about 1.1 µM and inactive = higher.

What is called GI50 is the concentration at which growth is held to half of that of the control. For `O=C(/C=C/c1ccc(O)c(O)c1)OCCc1cccc2ccccc12`, the GI50 in the test with SW-620 is 5.07 µM (inactive); in the test on OVCAR-5, 14.4 µM (inactive); in the test on PC-3, 3.88 µM (inactive); in the test with CCRF-CEM, 0.501 µM (active); in the test on A549, 4.54 µM (inactive); in the test on CAKI-1, 8.36 µM (inactive). The GI50 with IGROV-1 is 2.76 µM (inactive); in the test with ACHN, 3.78 µM (inactive); in the test on TK-10 it was 3.4 µM (inactive); in the test on NCI-H522, 0.948 µM (active); in the test on Malme-3M it was 6.5 µM (inactive); in the test with SK-MEL-5, 2.24 µM (inactive). Besides, the GI50 was 10.6 µM (inactive) in the test with SNB-19; 2.52 µM (inactive) in the test on SNB-75; 2.3 µM (inactive) with RPMI-8226; 3.24 µM (inactive) in the test with HCT-116; 12.1 µM (inactive) with NCI-H460.
Regarding `COc1ccc(N[S+]([O-])c2ccc(OC)cc2)cc1` (centres undefined), the GI50 is 34 µM (inactive) in the test with Hs-578T; 64.6 µM (inactive) in the test on SW-620; > 100 µM (inactive) in the test with OVCAR-5; 45.5 µM (inactive) in the test with CCRF-CEM; 61.8 µM (inactive) with HOP-62; 33.6 µM (inactive) in the test on A549. Besides, the GI50 with CAKI-1 is 52.7 µM (inactive); in the test with IGROV-1, 5.53 µM (inactive); in the test with ACHN, 95.1 µM (inactive); with TK-10, > 100 µM (inactive); with NCI-H522, 21.5 µM (inactive); in the test with Malme-3M, 25.5 µM (inactive). Further, the GI50 in the test with SK-MEL-5 was 18.8 µM (inactive); in the test on SNB-19 it was 60.1 µM (inactive); with RPMI-8226 it was 47 µM (inactive); with HCT-116, 41.2 µM (inactive); in the test on NCI-H460, 29 µM (inactive).
As to `COc1ccc(OC)c(NC(=O)CCC/C(CC(=O)c2ccc(O)c(OC)c2)=N\Nc2ccc([N+](=O)[O-])cc2)c1`, the GI50 is > 100 µM (inactive) with SW-620; > 100 µM (inactive) in the test with OVCAR-5; 68.2 µM (inactive) in the test with CCRF-CEM; 69.5 µM (inactive) with HOP-62; > 100 µM (inactive) in the test on A549; > 100 µM (inactive) in the test with CAKI-1. Further, the GI50 in the test with IGROV-1 was > 100 µM (inactive); in the test on ACHN, 80.4 µM (inactive); in the test on TK-10, 50.2 µM (inactive); in the test with SK-OV-3, 39 µM (inactive); in the test with NCI-H522, 45.9 µM (inactive); in the test on Malme-3M, > 100 µM (inactive). For the same compound, the GI50 was > 100 µM (inactive) in the test on SK-MEL-5; 26.6 µM (inactive) with SNB-19; 22.5 µM (inactive) in the test on SNB-75; > 100 µM (inactive) in the test on RPMI-8226; > 100 µM (inactive) in the test with HCT-116; > 100 µM (inactive) in the test on NCI-H460.
Regarding `O=C(C(=O)N1CC2C=CC1CC2)c1c[nH]c2ccccc12` (centres undefined), the GI50 in the test on SW-620, with OVCAR-5, with CCRF-CEM, in the test with HOP-62, in the test with A549 and with CAKI-1 was > 100 µM (inactive) throughout. Further, the GI50 with IGROV-1, in the test on ACHN, with TK-10, in the test with SK-OV-3, with NCI-H522 and with Malme-3M was > 100 µM (inactive) in each case. For the same compound, the GI50 in the test on SK-MEL-5 was > 100 µM (inactive); in the test with SNB-19 it was > 100 µM (inactive); in the test on SNB-75, 82.4 µM (inactive); with RPMI-8226 it was > 100 µM (inactive); with HCT-116, > 100 µM (inactive); in the test on NCI-H460, > 100 µM (inactive).
Take `COC(=O)C1=C(O)C(C(=O)OC)[C@]2(O)[C@@H](C(=O)OC)[C@H]1[C@H](C)[C@@H](c1ccccc1)[C@@H]2C(=O)OC` (some centres undefined): the GI50 with SW-620 was 44.3 µM (inactive); in the test with OVCAR-5 it was > 100 µM (inactive); with PC-3 it was 61.5 µM (inactive); in the test on CCRF-CEM, 23.2 µM (inactive); in the test with HOP-62, > 100 µM (inactive); with A549, 56.4 µM (inactive). For the same compound, the GI50 is > 100 µM (inactive) with CAKI-1; 16.8 µM (inactive) in the test on IGROV-1; 91.8 µM (inactive) in the test on ACHN; > 100 µM (inactive) in the test on TK-10; > 100 µM (inactive) in the test with SK-OV-3; 18.9 µM (inactive) in the test with NCI-H522. The GI50 is 42.2 µM (inactive) in the test with Malme-3M; 36.2 µM (inactive) in the test with SK-MEL-5; > 100 µM (inactive) in the test with SNB-19; > 100 µM (inactive) in the test with SNB-75; 60.3 µM (inactive) in the test on HCT-116; 69.2 µM (inactive) with NCI-H460.
Take `Cc1ccc(-n2c(C)n[nH]c2=O)cc1`: the GI50 in the test on SW-620, with OVCAR-5, in the test on PC-3, in the test with CCRF-CEM, in the test on HOP-62 and with A549 was > 100 µM (inactive) each time. The GI50 with IGROV-1, with ACHN, with TK-10, in the test on SK-OV-3, in the test on NCI-H522 and in the test on SK-MEL-5 was > 100 µM (inactive) each time. In addition, the GI50 with SNB-19, with SNB-75, with RPMI-8226 and with HCT-116 was > 100 µM (inactive) throughout.
In the case of `O=c1c2cc(Br)ccc2oc2ccc(Br)cc12`, the GI50 in the test on SW-620, in the test with OVCAR-5, in the test on PC-3, with CCRF-CEM, with A549 and in the test on CAKI-1 was > 100 µM (inactive) throughout. The GI50 in the test on IGROV-1, in the test on ACHN, with TK-10, with NCI-H522, in the test with Malme-3M and with SK-MEL-5 was > 100 µM (inactive) throughout. Also, the GI50 in the test on SNB-19 is > 100 µM (inactive); with SNB-75, 24.7 µM (inactive); in the test with RPMI-8226, > 100 µM (inactive); in the test with HCT-116, 82.2 µM (inactive); with NCI-H460, > 100 µM (inactive).
Regarding `CC1(C)C(=O)C(C)(C)C1=S`, the GI50 in the test on SW-620, with OVCAR-5, in the test on CCRF-CEM, in the test with HOP-62, with A549 and with CAKI-1 was > 100 µM (inactive) throughout. Also, the GI50 with IGROV-1, in the test with ACHN, with TK-10, in the test on SK-OV-3, in the test on NCI-H522 and in the test with Malme-3M was > 100 µM (inactive) throughout. Also, the GI50 with SK-MEL-5 is > 100 µM (inactive); in the test with SNB-19 it was > 100 µM (inactive); in the test with SNB-75, 18.6 µM (inactive); in the test on RPMI-8226, > 100 µM (inactive); in the test with HCT-116 it was > 100 µM (inactive); in the test on NCI-H460 it was > 100 µM (inactive).
